Values of other authors as cited in US8753875B2, “Compositions and means for diagnosing microbial infections” (priority 2007, dated 2014).
Like-named read-outs stand apart in the source and are kept apart here.

Experiments:
[1] = tested on: E. coli; conditions: cited from earlier work
[2] = tested on: E. coli; conditions: 1142 E. coli outpatient urinary isolates, USA and Canada; cited from earlier work

Compound | Antimicrobial resistance of E. coli (resistance in percent) ([1]; Austria, n 126) [%] | Antimicrobial resistance of E. coli (resistance in percent) ([1]; Belgium, n 137) [%] | Antimicrobial resistance of E. coli (resistance in percent) ([1]; Canada, n 166) [%] | Antimicrobial resistance of E. coli (resistance in percent) ([1]; Denmark, n 85) [%] | Antimicrobial resistance of E. coli (resistance in percent) ([1]; Finland, n 182) [%] | Antimicrobial resistance of E. coli (resistance in percent) ([1]; France, n 199) [%] | Antimicrobial resistance of E. coli (resistance in percent) ([1]; Germany, n 138) [%] | Antimicrobial resistance of E. coli (resistance in percent) ([1]; Greece, n 132) [%] | Antimicrobial resistance of E. coli (resistance in percent) ([1]; Ireland, n 154) [%] | Antimicrobial resistance of E. coli (resistance in percent) ([1]; Luxembourg, n 24) [%] | Antimicrobial resistance of E. coli (resistance in percent) ([1]; Norway, n 168) [%] | Antimicrobial resistance of E. coli (resistance in percent) ([1]; Portugal, n 86) [%] | Antimicrobial resistance of E. coli (resistance in percent) ([1]; Spain, n 191) [%] | Antimicrobial resistance of E. coli (resistance in percent) ([1]; Sweden, n 193) [%] | Antimicrobial resistance of E. coli (resistance in percent) ([1]; Switzerland, n 122) [%] | Antimicrobial resistance of E. coli (resistance in percent) ([1]; The Netherlands, n 195) [%] | Antimicrobial resistance of E. coli (resistance in percent) ([1]; Total, n 2478) [%] | Antimicrobial resistance of E. coli (resistance in percent) ([1]; United Kingdom, n 180) [%] | Overall resistance in E. coli [2] [%]
CNC(C)C1CCC(N)C(OC2C(N)CC(N)C(OC3OCC(C)(O)C(NC)C3O)C2O)O1 (stereo not shown) [GEN, 2-[4,6-diamino-3-[3-amino-6-(1-methylaminoethyl)tetrahydropyran-2-yl]oxy-2-hydroxy-cyclohexoxy]-5-methyl-4-methylamino-tetrahydropyran-3,5-diol] | 0.8 | 0.7 | 0.6 | 0 | 0.5 | 0 | 0.7 | 0.8 | 0.6 | 0 | 0 | 3.5 | 4.7 | 0 | 3.3 | 0.5 | 1.0 | 0 | –
C[C@@H]1O[C@@H]1P(=O)(O)O [FOF, [(2R,3S)-3-methyloxiran-2-yl]phosphonic acid] | 0 | 0.7 | 0.6 | 1.2 | 1.1 | 1.0 | 0 | 1.5 | 1.3 | 0 | 1.2 | 0 | 0.5 | 0.5 | 0.8 | 0.5 | 0.7 | 0 | –
Cc1cc(NS(=O)(=O)c2ccc(N)cc2)no1 [SUL, 4-amino-N-(5-methylisoxazol-3-yl)-benzenesulfonamide] | 25.4 | 32.8 | 25.3 | 21.2 | 15.4 | 31.7 | 34.8 | 19.7 | 40.3 | 25.0 | 25.0 | 44.2 | 48.7 | 16.6 | 31.1 | 25.6 | 29.1 | 31.7 | –
C[C@H]1COc2c(N3CCN(C)CC3)c(F)cc3c(=O)c(C(=O)O)cn1c23 [levofloxacin, (−)-(S)-9-fluoro-2,3-dihydro-3-methyl-10-(4-methyl-1-piperazinyl)-7-oxo-7H-pyrido [1,2,3-de]-1,4-benzoxazine-6-carboxylic acid] | – | – | – | – | – | – | – | – | – | – | – | – | – | – | – | – | – | – | 5.1
CC1=C(C(=O)O)N2C(=O)C(NC(=O)C(N)c3ccc(O)cc3)C2SC1 (stereo not shown) [CFR, 8-[2-amino-2-(4-hydroxyphenyl)-acetyl]amino-4-methyl-7-oxo-2-thia-6-azabicyclo [4.2.0] oct-4-ene-5-carboxylic acid] | 0.8 | 0.7 | 1.8 | 1.2 | 1.6 | 1.0 | 1.4 | 3.0 | 0.6 | 0 | 2.4 | 2.3 | 3.1 | 5.2 | 0.8 | 4.6 | 2.1 | 1.7 | –
co-amoxiclav [AMC] | 2.4 | 2.9 | 3.6 | 1.2 | 4.9 | 1.5 | 2.2 | 0.8 | 5.8 | 0 | 3.6 | 9.3 | 4.2 | 5.7 | 2.5 | 2.6 | 3.4 | 2.8 | –
CCn1cc(C(=O)O)c(=O)c2ccc(C)nc21 [NAL, 1-ethyl-7-methyl-4-oxo-[1,8]naphthyridine-3-carboxylic acid] | 2.4 | 6.6 | 0.6 | 3.5 | 1.6 | 3.5 | 3.6 | 6.8 | 1.9 | 8.3 | 1.2 | 11.6 | 26.7 | 2.6 | 6.6 | 5.1 | 5.4 | 2.2 | –
